According to patent US20080261977A1, “Pyrimidine Derivatives as Cannabinoid Receptor Modulators” (priority 2004, published 2008):
Structures can show the parent of a compound that is named as a salt. Where two headings read alike, the source gives them in different places.

Target: T1, human cannabinoid CB2 receptor (Homo sapiens, UniProt P34972)
T1 construct: expressed in transfected cells; host or cells: Saccharomyces cerevisiae strain MMY23 (cassette integrated at the ura3 locus; chimeric Gpa1/Gαi3)
Assay: Cannabinoid CB2 receptor agonist activity, yeast (Saccharomyces cerevisiae) cells expressing the receptor, FDGlu fluorescence
Assay type: cell-based
Settings: for Emax: read-out: efficacy (Emax relative to HU210) at the cloned human cannabinoid CB2 receptor
Protocol: The cannabinoid CB2 receptor agonist activity of the compounds of formula (I) was determined in accordance with the following experimental method.
Yeast (Saccharomyces cerevisiae) cells expressing the human cannabinoid CB2 receptor were generated by integration of an expression cassette into the ura3 chromosomal locus of yeast strain MMY23. This cassette consisted of DNA sequence encoding the human CB2 receptor flanked by the yeast GPD promoter to the 5′ end of CB2 and a yeast transcriptional terminator sequence to the 3′ end of CB2. MMY23 expresses a yeast/mammalian chimeric G-protein alpha subunit in which the C-terminal 5 amino acids of Gpa1 are replaced with the C-terminal 5 amino acids of human Gαi3 (as described in Brown et al. (2000), Yeast 16:11-22). Cells were grown at 30° C. in liquid Synthetic Complete (SC) yeast media (Guthrie and Fink (1991), Methods in Enzymology, Vol. 194) lacking uracil, tryptophan, adenine and leucine to late logarithmic phase (approximately 6 OD600/ml).
Agonists were prepared as 10 mM stocks in DMSO. EC50 values (the concentration required to produce 50% maximal response) were estimated using dilutions of between 3- and 5-fold (BiomekFX, Beckman) into DMSO. Agonist solutions in DMSO (1% final assay volume) were transferred into black, clear bottom, microtitre plates from NUNC (96- or 384-well). Cells were suspended at a density of 0.2 OD600/ml in SC media lacking histidine, uracil, tryptophan, adenine and leucine and supplemented with 10 mM 3-aminotriazole, 0.1M sodium phosphate pH 7.0, and […] fluorescein di-β-D-glucopyranoside (FDGlu). This mixture (50 ul per well for 384-well plates, 200 ul per well for 96-well plates) was added to agonist in the assay plates (Multidrop 384, Labsystems). After incubation at 30° C. for 24 hours, fluorescence resulting from degradation of FDGlu to fluorescein due to exoglucanase, an endogenous yeast enzyme produced during agonist-stimulated cell growth, was determined using a Spectrofluor microtitre plate reader (Tecan; excitation wavelength: 485 nm; emission wavelength: 535 nm). Fluorescence was plotted against compound concentration and iteratively curve fitted using a four parameter fit to generate a concentration effect value. Efficacy (Emax) was calculated from the equation
Emax=Max[compound X]−Min[compound X]/Max[HU210]−Min[HU210]×100%
where Max[compound X] and Min[compound X] are the fitted maximum and minimum respectively from the concentration effect curve for compound X, and Max[HU210] and Min[HU210] are the fitted maximum and minimum respectively from the concentration effect curve for (6aR,10aR)-3-1,1′-Dimethylheptyl)-6a,7,10,10a-tetrahydro-1-hydroxy-6,6-dimethyl-6H-dibenzo[b,d]pyran-9-methanol (HU210; available from Tocris). Equieffective molar ratio (EMR) values were calculated from the equation
Where EC50[compound X] is the EC50 of compound X and EC50[HU210] is the EC50 of HU210.

[1] = yeast agonist assay, read-out: EC50 at the cloned human cannabinoid CB2 receptor

T1 sequence (P34972 whole entry): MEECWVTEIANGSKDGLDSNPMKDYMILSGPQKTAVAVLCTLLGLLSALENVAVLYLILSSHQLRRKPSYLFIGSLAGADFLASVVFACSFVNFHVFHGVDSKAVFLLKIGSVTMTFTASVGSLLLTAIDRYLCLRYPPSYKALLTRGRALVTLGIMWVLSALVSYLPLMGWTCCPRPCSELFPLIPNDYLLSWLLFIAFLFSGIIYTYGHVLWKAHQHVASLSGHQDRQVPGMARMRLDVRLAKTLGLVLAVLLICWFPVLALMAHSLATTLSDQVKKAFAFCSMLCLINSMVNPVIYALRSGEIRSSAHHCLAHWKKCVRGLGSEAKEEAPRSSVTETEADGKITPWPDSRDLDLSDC

EC50 [1] [nM]	Emax (yeast agonist assay) [%]	Compound	Emax [%]	other results
< 300	> 50	COCCNCc1cnc(Nc2cccc(Cl)c2)nc1C(F)(F)F [Example 17, (3-Chlorophenyl)-{5-[(2-methoxy-ethylamino)-methyl]-4-trifluoromethyl-pyrimidin-2-yl}-amine, formate]	–	–
–	–	CC(C)CNCc1cnc(Nc2ccc(Cl)cc2Cl)nc1C(F)(F)F [Example 27, (2,4-Dichlorophenyl)-{5-[(isobutylamino)-methyl]-4-trifluoromethyl-pyrimidin-2yl}-amine]	> 50	EC50: < 300 nM
< 300	> 50	Fc1cccc(Nc2ncc(CNC3CC3)c(C(F)(F)F)n2)c1 [Example 38, (3-Fluorophenyl)-(5-cyclopropylaminomethyl-4-trifluoromethyl-pyrimidin-2-yl)-amine]	–	–
< 300	> 50	Clc1cccc(Nc2ncc(CNCC3CC3)c(C3CC3)n2)c1 [Example 3, (3-Chloro-phenyl)-{4-cyclopropyl-5-[(cyclopropylmethyl-amino)-methyl]-pyrimidin-2-yl}-amineacetate]	–	–
< 300	> 50	CC(NCC1CC1)c1cnc(Nc2cccc(F)c2)nc1C(F)(F)F (stereo not shown) [Example 94, (3-Fluorophenyl)-{5-[1-(cyclopropylmethyl-amino)-ethyl]-4-trifluoromethyl-pyrimidin-2-yl}-amine, formate]	–	–
< 300	> 50	CC(C)(C)c1nc(Nc2cccc(Cl)c2)ncc1CNCc1ccc(F)cc1 [Example 100, (4-tert-Butyl-5-[(4-fluoro-benzylamino)-methyl]-pyrimidin-2-yl}-(3-chloro-phenyl)-amine hydrochloride]	–	–
< 300	> 50	CCCNCc1cnc(Nc2cccc(Cl)c2)nc1C(F)(F)F [Example 19, (3-Chlorophenyl)-(5-propylaminomethyl-4-trifluoromethyl-pyrimidin-2-yl)-amine,formate]	–	–
< 300	> 50	CC(C)(C)c1nc(Nc2cccc(Cl)c2)ncc1CNCC1CCOCC1 [Example 99, (4-tert-Butyl-5-{[(tetrahydro-pyran-4-ylmethyl)-amino]-methyl}-pyrimidin-2-yl)-(3-chloro-phenyl)-aminehydrochloride]	–	–
< 300	> 50	CC(C)CNCc1cnc(Nc2cccc(Cl)c2)nc1C1CC1 [Example 5, (3-Chloro-phenyl)-[4-cyclopropyl-5-(isobutylamino-methyl)-pyrimidin-2-yl]-amine]	–	–
–	–	Fc1ccc(Nc2ncc(CNCC3CC3)c(C(F)(F)F)n2)cc1Cl [Example 13, (3-Chloro-4-fluoro-phenyl)-{5-[(cyclopropylmethyl-amino)-methyl]-4-trifluoromethyl-pyrimidin-2-yl}-amine hydrochloride]	> 50	EC50: < 300 nM
< 300	> 50	CC(C)c1nc(Nc2cccc(Cl)c2)ncc1CNCC1CC1 [Example 7, (3-Chloro-phenyl)-{5-[(cyclopropylmethyl-amino)-methyl]-4-isopropyl-pyrimidin-2-yl}-amine hydrochloride]	–	–
–	–	FC(F)(F)c1nc(Nc2cccc(Cl)c2)ncc1CNC1CCC1 [Example 21, (3-Chlorophenyl)-(5-cyclobutylaminomethyl-4-trifluoromethyl-pyrimidin-2-yl)-amine]	> 50	EC50: < 300 nM
< 300	> 50	CC(C)c1nc(Nc2cccc(Cl)c2)ncc1CN1CCOCC1 [Example 6, (3-Chloro-phenyl)-(4-isopropyl-5-morpholin-4-ylmethyl-pyrimidin-2-yl)-amine]	–	–
–	–	CC(NC1CC1)c1cnc(Nc2cccc(Cl)c2)nc1C(F)(F)F (stereo not shown) [Example 85]	> 50	EC50: < 300 nM
–	–	CC(C)(C)CNCc1cnc(Nc2cccc(Cl)c2)nc1C(F)(F)F [Example 20, (3-Chlorophenyl)-{5-[(2,2-dimethylpropylamino)-methyl]-4-trifluoromethyl-pyrimidin-2-yl}-amine]	> 50	EC50: < 300 nM
< 300	> 50	CC(C)c1nc(Nc2cccc(Cl)c2)ncc1CNC1CCC1 [Example 98, (3-Chloro-phenyl)-{5-[(cyclobutylamino)-methyl]-4-isopropyl-pyrimidin-2-yl}-amine hydrochloride]	–	–
< 300	> 50	FC(F)(F)c1nc(Nc2cccc(Cl)c2)ncc1CNC1CC1 [Example 23, (3-Chlorophenyl)-(5-cyclopropylaminomethyl-4-trifluoromethyl-pyrimidin-2-yl)-amine,formate]	–	–
< 300	> 50	CC(C)CNCc1cnc(Nc2cccc(F)c2)nc1C(F)(F)F [Example 36, (3-Fluorophenyl)-{5-[(isobutylamino)-methyl]-4-trifluoromethyl-pyrimidin-2yl}-amine, formate]	–	–
< 300	> 50	CC(NCC1CCCC1)c1cnc(Nc2cccc(Cl)c2)nc1C(F)(F)F (stereo not shown) [Example 90, (3-Chlorophenyl)-{5-[1-(cyclopentylmethyl-amino)-ethyl]-4-trifluoromethyl-pyrimidin-2-yl}-amine, formate]	–	–
–	–	FC(F)(F)c1nc(Nc2ccc(Cl)cc2Cl)ncc1CNC1CC1 [Example 30, (2,4-Dichlorophenyl)-(5-cyclopropylaminomethyl-4-trifluoromethyl-pyrimidin-2-yl)-amine]	> 50	EC50: < 300 nM
–	–	FC(F)(F)c1nc(Nc2ccc(Cl)cc2Cl)ncc1CNCC1CC1 [Example 28, (2,4-Dichlorophenyl)-{5-[(cyclopropylmethylamino)-methyl]-4-trifluoromethyl-pyrimidin-2-yl}-amine]	> 50	EC50: < 300 nM
< 300	> 50	CC(NCC1CCOCC1)c1cnc(Nc2cccc(Cl)c2)nc1C(F)(F)F (stereo not shown) [Example 88, (3-Chlorophenyl)-(5-{1-[(tetrahydro-pyran-4-ylmethyl)-amino]-ethyl}-4-trifluoromethyl-pyrimidin-2-yl)-amine, formate]	–	–
–	–	COCCN(CCOC)Cc1cnc(Nc2cccc(Cl)c2)nc1C(F)(F)F [Example 83, (5-{[Bis-(2-methoxy-ethyl)-amino]-methyl}-4-trifluoromethyl-pyrimidin-2-yl)-(3-chlorophenyl)-amine]	–	potency or efficacy at the CB2 receptor (in words): no appreciable potency or efficacy; potency or efficacy at the CB2 receptor (in words) (listed as (5-{[Bis-(2-methoxy-ethyl)-amino]-methyl}-4-trifluoromethyl-pyrimidin-2-yl)-(3-c)): do not appear to have any potency or efficacy
< 300	> 50	COCCNCc1cnc(Nc2cccc(Cl)c2)nc1C(C)C [Example 9, (3-Chloro-phenyl)-{4-isopropyl-5-[(2-methoxy-ethylamino)-methyl]-pyrimidin-2-yl}-amineformate]	–	–

Compound	EC50 [1] [nM]	Emax (yeast agonist assay) [%]	Emax [%]	other results
CN(C)Cc1cnc(Nc2cccc(Cl)c2)nc1C(F)(F)F [Example 44, (3-Chlorophenyl)-(5-dimethylaminomethyl-4-trifluoromethyl-pyrimidin-2-yl)-amine, formate]	300 to 1000	–	> 50	–
FC(F)(F)c1nc(Nc2cccc(Cl)c2)ncc1CNCCc1ccccc1 [Example 45, (3-Chlorophenyl)-[5-(phenethylamino-methyl)-4-trifluoromethyl-pyrimidin-2-yl]-amine, formate]	300 to 1000	–	> 50	–
FC(F)(F)c1nc(Nc2cccc(Cl)c2)ncc1CN1CCCCC1 [Example 39, (3-Chlorophenyl)-(5-piperidin-1-ylmethyl-4-trifluoromethyl-pyrimidin-2-yl)-amine,formate]	300 to 1000	–	> 50	–
FC(F)(F)c1nc(Nc2cccc(Cl)c2)ncc1CNCCCc1ccccc1 [Example 46, (3-Chlorophenyl)-[5-(phenpropylamino-methyl)-4-trifluoromethyl-pyrimidin-2-yl]-amine, formate]	300 to 1000	–	> 50	–
N#Cc1cccc(Nc2ncc(CNC3CC3)c(C(F)(F)F)n2)c1 [Example 58, (3-Cyanophenyl)-(5-cyclopropylaminomethyl-4-trifluoromethyl-pyrimidin-2-yl)-amine,formate]	300 to 1000	–	> 50	–
